Laboratory results reported in article PMC10714400, “Antimicrobial Peptide–Peptoid Hybrids with and without Membrane Disruption” (ACS Infectious Diseases, 2023).
pIC50: −log10 of the molar value. ≈ marks a conversion by molar mass, not a printed value. Where a SMILES comes first, the peptide text is derived from it. [ ]: non-standard residue; d: D form. Nleu = CC(C)CNCC(=O)O; Nlys = NCCCCNCC(=O)O

What was measured:
A. baumannii ATCC19606 = tested on: A. baumannii ATCC19606
Procedure: (§1) Antimicrobial activity was assayed for all the peptide–peptoids against P. aeruginosa PAO1, K. pneumoniae NCTC418, E. coli W3110, A. baumannii ATCC 19606, methicillin-resistant S. aureus COL (MRSA), and for selected peptides on P. aeruginosa PA14 and the polymyxin-B-resistant derivatives PA14 4.13, PA14 4.18, PA14 2P4, as well as the clinical isolates ZEM-1A and ZEM9A, K. pneumoniae OXA-48, S. aureus Newman, Enterobacter cloacae, Stenotrophomonas maltophilia, Burkholderia cenocepacia, and Staphylococus epidermidis. To determine the Minimal Inhibitory Concentration (MIC), the Broth Microdilution method was used.[72] A colony of bacteria was picked and grown in LB medium overnight at 37 °C.
(§2) To each well was finally added 4 μL of the diluted bacterial suspension (see above), corresponding to approximately 5 × 10^5 CFU. For each test, two columns of the plate were kept for sterility control (medium only), growth control (medium with bacterial inoculum, no compound). The positive control, Polymyxin B (starting with a concentration of 16 μg/mL) in MH medium with bacterial inocula, was introduced in the two lines of the plate. The plates were incubated at 37 °C for ca. 18 h under static conditions. Next, 15 μL of 3-(4,5-dimethylthiazol-2-yl)-2,5-diphenyltetrazolium bromide (MTT)[73] (1 mg/mL in sterilized MilliQ deionized water) were added to each well, and the plates were incubated for 20–30 min at room temperature. The minimal inhibitory concentration (MIC) was defined as the lowest concentration of the compound that inhibits the visible growth of the tested bacteria (yellow) with the unaided eye.

E. coli W3110 = tested on: E. coli W3110
Procedure: as §1, §2

K. pneumoniae NCTC418 = tested on: K. pneumoniae NCTC418
Procedure: as §1, §2

P. aeruginosa PAO1 = tested on: P. aeruginosa PAO1
Procedure: as §1, §2

PA14 2P4 (pmrB) = details: CSV; […] MH at pH 8.5
Procedure: as §1, §2

PA14 4.13 (phoQ) = details: CSV; […] MH at pH 8.5
Procedure: as §1, §2

PA14 4.18 (pmrB) = details: […] MH at pH 8.5
Procedure: as §1, §2

S. aureus COL (MRSA) = tested on: S. aureus COL (MRSA)
Procedure: as §1, §2

[1] = tested on: human red blood cells (hRBC); test: Minimum hemolytic concentration (MHC); type: cell-based
Description: We also measured minimal hemolysis concentrations (MHC) on human red blood cells by serial 2-fold dilution as an indication of toxicity against eukaryotic cells (Table 1).

[2] = Circular dichroism, α-helical content; type: physicochemical; details: 0.1 mg/mL; for CD %α with 5 mM DPC: 10 mM phosphate buffer pH 7.4, 5 mM DPC; for CD %α with 20% TFE: 10 mM phosphate buffer pH 7.4, 20% TFE
P. aeruginosa PA14 = details: PA14, pH 8.5
Procedure: as §1
as §2, with “The plates were incubated at 37 °C for ca. 18 h under static conditions.” left out

S. aureus Newman = details: Newman, 4 h, pH 8.5
Procedure: as §1
as §2, with “The plates were incubated at 37 °C for ca. 18 h under static conditions.” left out

HEK293 cells = test: Cell viability assay by Alamar blue; details: read-out: Toxicity on HEK293 cells; CSV
Procedure: The data are represented as the mean value ± SD, n = 3. […] (c) Vesicle leakage assay for a selection of compounds. Lipid vesicles made of EYPG or EYPC were suspended in a buffer (10 mM TRIS, 107 mM NaCl, pH 7.4). After 45 s, the indicated compound was added to reach the desired concentration. After 240 s, 30 μL of 1.2% TritonX-100 was added for full fluorescein release. […] See Supporting Information for the full curves, all of the data, and procedures.
HEK293 cells were cultured and maintained in DMEM high glucose (Dulbecco’s modified Eagle medium, Sigma Aldrich) medium supplemented with 10% FBS (Sigma Aldrich) and 1% penicillin/streptomycin. A549 cells were cultured and maintained in RPMI-1640 medium (Sigma Aldrich), supplemented with 10% FBS (Sigma Aldrich) and 1% penicillin/streptomycin. The cells were handled and subcultured according to the manufacturer instructions. Cells were incubated in a humidified incubator at 37 °C in the presence of 5% CO2.
Assays on HEK293, A549 cells were performed as described earlier.[74] […]

## CC(C)C[C@H](NC(=O)CN(CCCCN)C(=O)[C@H](CC(C)C)NC(=O)[C@H](CC(C)C)NC(=O)[C@H](CCCCN)NC(=O)[C@H](CC(C)C)NC(=O)[C@H](CC(C)C)NC(=O)[C@H](CCCCN)NC(=O)CNCCCCN)C(=O)N[C@@H](CC(C)C)C(=O)N(CC(N)=O)CC(C)C [EB2, kKLLKLLkLLl] (H-[Nlys]KLLKLL[Nlys]LL[Nleu]-NH2)
A. baumannii ATCC19606; ATCC19606, 4 h, pH 7.4
  MIC A. baumannii ATCC19606, full MH at pH 7.4: >32 ug/mL
A. baumannii ATCC19606; Table S2, […] MH, pH 7.4
  MIC A. baumannii ATCC19606 […] 7.4: 16 µg/mL (≈ 12.1 µM)
A. baumannii ATCC19606; Table S2, […] MH, pH 8.5
  MIC A. baumannii ATCC19606 […] 8.5: 8 µg/mL (≈ 6.05 µM)
A. baumannii ATCC19606; Table S2, full MH, pH 7.4
  MIC A. baumannii ATCC19606 Full MH 7.4: > 32 µg/mL
A. baumannii ATCC19606; Table S2, full MH, pH 8.5
  MIC A. baumannii ATCC19606 Full MH 8.5: 32 µg/mL (≈ 24.2 µM)
E. coli W3110; CSV, […] MH at pH 7.4
  MIC E. coli W3110, […] MH at pH 7.4: 4 ug/mL
E. coli W3110; CSV, full MH at pH 7.4
  MIC E. coli W3110, full MH at pH 7.4: 32 ug/mL
E. coli W3110; CSV, full MH at pH 8.5
  MIC E. coli W3110, full MH at pH 8.5: 32 ug/mL
E. coli W3110; Table S2, […] MH, pH 7.4
  MIC E. coli W3110 […] 7.4: 4 µg/mL (≈ 3.03 µM)
E. coli W3110; Table S2, […] MH, pH 8.5
  MIC E. coli W3110 […] 8.5: 2 µg/mL (≈ 1.51 µM)
E. coli W3110; Table S2, full MH, pH 7.4
  MIC E. coli W3110 Full MH 7.4: 32 µg/mL (≈ 24.2 µM)
E. coli W3110; Table S2, full MH, pH 8.5
  MIC E. coli W3110 Full MH 8.5: 32 µg/mL (≈ 24.2 µM)
K. pneumoniae NCTC418; NCTC418, 4 h, pH 7.4
  MIC K. pneumoniae NCTC418, full MH at pH 7.4: >32 ug/mL
K. pneumoniae NCTC418; NCTC418, 4 h, pH 8.5
  MIC K. pneumoniae NCTC418, full MH at pH 8.5: >32 ug/mL
K. pneumoniae NCTC418; Table S2, […] MH, pH 7.4
  MIC K. pneumoniae NCTC418 […] 7.4: > 32 µg/mL
K. pneumoniae NCTC418; Table S2, […] MH, pH 8.5
  MIC K. pneumoniae NCTC418 […] 8.5: > 32 µg/mL
K. pneumoniae NCTC418; Table S2, full MH, pH 7.4
  MIC K. pneumoniae NCTC418 Full MH 7.4: > 32 µg/mL
K. pneumoniae NCTC418; Table S2, full MH, pH 8.5
  MIC K. pneumoniae NCTC418 Full MH 8.5: > 32 µg/mL
P. aeruginosa PAO1; PAO1, 4 h, pH 7.4
  MIC P. aeruginosa PAO1, full MH at pH 7.4: 32 ug/mL
P. aeruginosa PAO1; PAO1, 4 h, pH 8.5
  MIC P. aeruginosa PAO1, full MH at pH 8.5: 16 ug/mL
P. aeruginosa PAO1; Table S2, […] MH, pH 7.4
  MIC P. aeruginosa PAO1 […] 7.4: 16 µg/mL (≈ 12.1 µM)
P. aeruginosa PAO1; Table S2, […] MH, pH 8.5
  MIC P. aeruginosa PAO1 […] 8.5: 8 µg/mL (≈ 6.05 µM)
P. aeruginosa PAO1; Table S2, full MH, pH 7.4
  MIC P. aeruginosa PAO1 Full MH 7.4: 32 µg/mL (≈ 24.2 µM)
P. aeruginosa PAO1; Table S2, full MH, pH 8.5
  MIC P. aeruginosa PAO1 Full MH 8.5: 16 µg/mL (≈ 12.1 µM)
PA14 2P4 (pmrB)
  MIC P. aeruginosa PA14 2P4, […] MH at pH 8.5: 8 ug/mL
PA14 4.13 (phoQ)
  MIC P. aeruginosa PA14 4.13, […] MH at pH 8.5: 4 ug/mL
PA14 4.18 (pmrB); CSV
  MIC P. aeruginosa PA14 4.18, […] MH at pH 8.5: 6 ug/mL
PA14 4.18 (pmrB); Table S3
  MIC P. aeruginosa PA14 4.18: 4 to 8 µg/mL
S. aureus COL (MRSA); COL, 4 h, pH 7.4
  MIC S. aureus COL (MRSA), full MH at pH 7.4: >32 ug/mL
S. aureus COL (MRSA); COL, 4 h, pH 8.5
  MIC S. aureus COL (MRSA), full MH at pH 8.5: 32 ug/mL
S. aureus COL (MRSA); Table S2, […] MH, pH 7.4
  MIC S. aureus COL (MRSA) […] 7.4: 32 µg/mL (≈ 24.2 µM)
S. aureus COL (MRSA); Table S2, […] MH, pH 8.5
  MIC S. aureus COL (MRSA) […] 8.5: 2 µg/mL (≈ 1.51 µM)
S. aureus COL (MRSA); Table S2, full MH, pH 7.4
  MIC S. aureus COL (MRSA) Full MH 7.4: > 32 µg/mL
S. aureus COL (MRSA); Table S2, full MH, pH 8.5
  MIC S. aureus COL (MRSA) Full MH 8.5: 32 µg/mL (≈ 24.2 µM)
[1]
  Hemolysis: none of them showed any measurable hemolysis
  MHC: >2000 µg/mL
[2]; DichroWeb, Contin-LL
  CD %α with 5 mM DPC: 11%
  CD %α with 20% TFE: 15%
[2]; Table S2
  CD %α with 5 mM DPC: 11%
  CD %α with 20% TFE: 15%
P. aeruginosa PA14
  MIC P. aeruginosa PA14: 2 to 4 µg/mL
S. aureus Newman
  MIC S. aureus Newman: 2 to 4 µg/mL
HEK293 cells
  pIC50: < 3.70
